The values below come from patent US20120041035A1, “LEVAMLODIPINE COMPOUND PHARMACEUTICAL COMPOSITION” (SHIHUIDA PHARMACEUTICALS GROUP (JILIN) LTD, priority 2010, published 2012).

The subject of this series is primary hypertension patients (systolic pressure ≧160 mmHg). The series can be described thus: Clinical use in primary hypertension patients, 8-week treatment. In kind it is in vivo, human. Particulars: after 8-week treatment, levamlodipine 5.0 mg/d, chlorthalidone 25.0 mg/d; for Edema Incidence / Hypokalemia Incidence: combined 2.5 mg/d and 12.5 mg/d; for Decrease of Systolic Pressure: combined levamlodipine 2.5 mg/d and chlorthalidone 12.5 mg/d, 30 patients each. The procedure: The selected primary hypertension patients (with a systolic pressure ≧160 mmHg) were divided into 3 groups of 30 patients each, the levamlodipine group was given levamlodipine at 5.0 mg/d; the chlorthalidone group was given chlorthalidone at 25.0 mg/d; and the combined administration group was given levamlodipine at 2.5 mg/d and chlorthalidone at 12.5 mg/d. After 8-week treatment, the decease of the systolic pressure, the edema incidence, and the hypokalemia incidence were observed.

Turning to `CCOC(=O)C1=C(COCCN)NC(C)=C(C(=O)OC)[C@@H]1c1ccccc1Cl` [Levamlodipine, 3-ethyl-5-methyl-2-(2-aminoethoxymethyl)-4-(2-chlorophenyl)-1,4-dihydro-6-methyl-3,5-pyridine dicarboxylate], the “Edema Incidence” value stood at 10%, the “Hypokalemia Incidence” value was 0% and the “Decrease of Systolic Pressure” value is 22.7 ± 7.8 mmHg.

`NS(=O)(=O)c1cc(C2(O)NC(=O)c3ccccc32)ccc1Cl` (stereo not drawn) [Chlorthalidone, 5(2,3-dihydro-1-hydroxy-3-oxo-1H-isoindol-1-yl)-2-chlorobenzenesulfonamide]: the “Edema Incidence” value is 0%, the “Hypokalemia Incidence” value is reported as 20.3% and the “Decrease of Systolic Pressure” value turned out to be 20.5 ± 8.5 mmHg.
